The test has as its system L1210 leukemia ip in BDF1 mice, survival T/C. In words: NCI In Vivo Anticancer Drug Screen. Data for tumor model L1210 Leukemia (intraperitoneal) in B6D2F1 (BDF1) mice. Particulars: endpoint: mean survival time, higher = longer survival. The essentials: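 Transplanted-tumor mice were given test agent; controls received vehicle only. Survival readings from the two groups were divided (treated over control).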

[1] abbreviates: dose: 100.0 mg/kg/injection, schedule: Q04DX003 (ip), vehicle: saline.
The mark [2] stands for this setting: dose: 200.0 mg/kg/injection, schedule: Q04DX003 (ip), vehicle: saline.
[3] abbreviates: dose: 50.0 mg/kg/injection, schedule: Q01DX009 (ip), vehicle: Klucel (hydroxypropylcellulose) (HPC).
Where [4] appears, read: dose: 100.0 mg/kg/injection, schedule: Q04DX003 (ip), vehicle: Klucel (hydroxypropylcellulose) (HPC).
The mark [5] stands for this setting: dose: 100.0 mg/kg/injection, schedule: Q01DX001 (ip), vehicle: Klucel (hydroxypropylcellulose) (HPC).
Setting [6] is: dose: 200.0 mg/kg/injection, schedule: Q01DX001 (ip), vehicle: Klucel (hydroxypropylcellulose) (HPC).

Where “and” joins values, the source holds several entries; their conditions need not be identical. Equal entries are not always repeated. Toxic doses and inconclusive results are not listed.

In the case of `ClCc1ccccc1CCl`, the T/C runs as follows: (dose: 5.0 mg/kg/injection, schedule: Q01DX015 (ip), vehicle: carboxymethylcellulose (CMC)) 90 % of control; (dose: 10.0 mg/kg/injection, schedule: Q01DX015 (ip), vehicle: carboxymethylcellulose (CMC)) 87 % of control.
Consider `COC(=O)c1cc([N+](=O)[O-])ccc1Cl`, for which the T/C was 87 % of control (dose: 100.0 mg/kg/injection, schedule: Q01DX009 (ip), vehicle: saline); 98 % of control under setting [1]; 95 % of control (dose: 200.0 mg/kg/injection, schedule: Q01DX009 (ip), vehicle: saline); 97 % of control under setting [2]; 101 % of control (dose: 400.0 mg/kg/injection, schedule: Q01DX009 (ip), vehicle: saline); 95 % of control (dose: 400.0 mg/kg/injection, schedule: Q04DX003 (ip), vehicle: saline).
As to `CC(=O)C(C#N)c1ccccc1` (configuration not stated), the T/C reads like this: (dose: 25.0 mg/kg/injection, schedule: Q01DX009 (ip), vehicle: Klucel (hydroxypropylcellulose) (HPC)) 98 % of control; (dose: 25.0 mg/kg/injection, schedule: Q04DX003 (ip), vehicle: Klucel (hydroxypropylcellulose) (HPC)) 100 % of control; under setting [3], 96 % of control; (dose: 50.0 mg/kg/injection, schedule: Q04DX003 (ip), vehicle: Klucel (hydroxypropylcellulose) (HPC)) 100 % of control; under setting [4], 97 % of control.
For `COc1ccc(-n2c(=O)c(N=Nc3ccc(Br)cc3)c(O)n(-c3ccccc3C)c2=S)cc1`, the T/C (dose: 75.0 mg/kg/injection, schedule: Q04DX003 (ip), vehicle: Klucel (hydroxypropylcellulose) (HPC)) is 98 % of control; the T/C (dose: 150.0 mg/kg/injection, schedule: Q04DX003 (ip), vehicle: Klucel (hydroxypropylcellulose) (HPC)) is 104 % of control; the T/C (dose: 300.0 mg/kg/injection, schedule: Q04DX003 (ip), vehicle: Klucel (hydroxypropylcellulose) (HPC)) is 107 % of control.
With `COc1cc(C(=O)CC(O)(C(F)(F)F)C(F)(F)F)cc(OC)c1OC`, the T/C is, setting by setting: under setting [3], 95 % of control; under setting [5], 86 % of control; (dose: 100.0 mg/kg/injection, schedule: Q01DX009 (ip), vehicle: Klucel (hydroxypropylcellulose) (HPC)) 97 % of control; under setting [6], 100 % of control; (dose: 200.0 mg/kg/injection, schedule: Q01DX009 (ip), vehicle: Klucel (hydroxypropylcellulose) (HPC)) 98 % of control.
In the case of `Nc1ccc(OCCCc2c(N)nc(N)nc2N)c(Cl)c1`, the T/C is, setting by setting: under setting [4], 96 % of control; (dose: 200.0 mg/kg/injection, schedule: Q04DX003 (ip), vehicle: Klucel (hydroxypropylcellulose) (HPC)) 94 % of control; (dose: 400.0 mg/kg/injection, schedule: Q04DX003 (ip), vehicle: Klucel (hydroxypropylcellulose) (HPC)) 97 % of control.
As to `COc1cc(NS(C)(=O)=O)ccc1Nc1c2ccccc2nc2c(C)cccc12`, the T/C reads like this: (dose: 0.62 mg/kg/injection, schedule: Q01DX009 (ip), vehicle: saline) 100 % of control; (dose: 1.25 mg/kg/injection, schedule: Q01DX009 (ip), vehicle: Klucel (hydroxypropylcellulose) (HPC)) 124 % of control; (dose: 1.25 mg/kg/injection, schedule: Q01DX009 (ip), vehicle: saline) 111 % of control; (dose: 2.5 mg/kg/injection, schedule: Q01DX009 (ip), vehicle: saline) 160 % of control; (dose: 2.5 mg/kg/injection, schedule: Q01DX009 (sc), vehicle: saline) 116 % of control; (dose: 2.5 mg/kg/injection, schedule: Q04DX003 (ip), vehicle: saline) 121 % of control. Moreover, the T/C is, setting by setting: (dose: 5.0 mg/kg/injection, schedule: Q01DX009 (ip), vehicle: Klucel (hydroxypropylcellulose) (HPC)) 118 % of control; (dose: 5.0 mg/kg/injection, schedule: Q01DX009 (ip), vehicle: saline) 163 % of control; (dose: 10.0 mg/kg/injection, schedule: Q01DX009 (ip), vehicle: Klucel (hydroxypropylcellulose) (HPC)) 103 % of control; (dose: 10.0 mg/kg/injection, schedule: Q01DX009 (sc), vehicle: saline) 112 % of control; (dose: 10.0 mg/kg/injection, schedule: Q04DX003 (ip), vehicle: saline) 159 % of control and 164 % of control; (dose: 20.0 mg/kg/injection, schedule: Q04DX003 (ip), vehicle: saline) 213 % of control and 234 % of control.
Regarding `CCc1ccc(C2=C(O)C(=O)C(c3ccccc3)=C(O)C2=O)cc1`, the T/C is, setting by setting: (dose: 12.5 mg/kg/injection, schedule: Q01DX009 (ip), vehicle: acetone) 95 % of control; (dose: 25.0 mg/kg/injection, schedule: Q01DX009 (ip), vehicle: acetone) 90 % of control; (dose: 33.0 mg/kg/injection, schedule: Q01DX009 (ip), vehicle: acetone) 96 % of control; (dose: 33.0 mg/kg/injection, schedule: Q01DX009 (ip), vehicle: saline) 96 % of control; (dose: 50.0 mg/kg/injection, schedule: Q01DX009 (ip), vehicle: acetone) 101 % of control; (dose: 50.0 mg/kg/injection, schedule: Q01DX009 (ip), vehicle: saline) 97 % of control. Besides, the T/C (dose: 75.0 mg/kg/injection, schedule: Q01DX009 (ip), vehicle: acetone) is 118 % of control.
In the case of `Clc1ccc(C(c2ccc(Cl)cc2)N2CCNCC2)cc1`, the T/C (dose: 25.0 mg/kg/injection, schedule: Q01DX009 (ip), vehicle: saline with Tween-80) was 98 % of control.
Turning to `CN1CCC(O)(c2ccccc2)C(/C(=N/O)c2ccccc2)C1` (configuration not stated), the T/C by setting is: under setting [1], 97 % of control; under setting [2], 90 % of control.
Take `S=C=NCc1ccc(Br)cc1`: the T/C is 95 % of control (dose: 1.25 mg/kg/injection, schedule: Q01DX009 (ip), vehicle: other); 100 % of control (dose: 2.5 mg/kg/injection, schedule: Q01DX009 (ip), vehicle: other); 103 % of control (dose: 2.5 mg/kg/injection, schedule: Q04DX003 (ip), vehicle: other); 97 % of control (dose: 5.0 mg/kg/injection, schedule: Q01DX009 (ip), vehicle: other); 103 % of control (dose: 5.0 mg/kg/injection, schedule: Q04DX003 (ip), vehicle: other); 93 % of control (dose: 10.0 mg/kg/injection, schedule: Q01DX001 (ip), vehicle: other). In addition, the T/C (dose: 10.0 mg/kg/injection, schedule: Q04DX003 (ip), vehicle: other) is 88 % of control.
For the compound `CCCCCCCCCCCC(=O)N1CCCCC1`, the T/C is, setting by setting: (dose: 100.0 mg/kg/injection, schedule: Q01DX001 (ip), vehicle: saline with Tween-80) 101 % of control; (dose: 200.0 mg/kg/injection, schedule: Q01DX001 (ip), vehicle: saline with Tween-80) 97 % of control; (dose: 400.0 mg/kg/injection, schedule: Q01DX001 (ip), vehicle: saline with Tween-80) 89 % of control.
`CCOC1=C(Cl)C(=O)C(OCC)=C(Cl)C1=O`: the T/C reads like this: (dose: 4.0 mg/kg/injection, schedule: Q04DX003 (ip), vehicle: DMSO) 98 % of control; (dose: 6.0 mg/kg/injection, schedule: Q04DX003 (ip), vehicle: DMSO) 98 % of control; (dose: 9.0 mg/kg/injection, schedule: Q04DX003 (ip), vehicle: DMSO) 96 % of control and 86 % of control; (dose: 75.0 mg/kg/injection, schedule: Q01DX001 (ip), vehicle: alcohol) 92 % of control; (dose: 150.0 mg/kg/injection, schedule: Q01DX001 (ip), vehicle: alcohol) 97 % of control.
As to `C=C1C(=O)OC2C1C(O)CC(C)(O)C1CC=C(C)C21` (configuration not stated), the T/C was 102 % of control (dose: 100.0 mg/kg/injection, schedule: Q04DX002 (ip), vehicle: saline); 102 % of control (dose: 200.0 mg/kg/injection, schedule: Q04DX002 (ip), vehicle: saline); 94 % of control (dose: 400.0 mg/kg/injection, schedule: Q04DX002 (ip), vehicle: saline).
For `COc1c2occc2c(OC)c2c(=O)cc(/C=C/c3ccc4ccccc4n3)oc12`, the T/C was 95 % of control (dose: 100.0 mg/kg/injection, schedule: Q01DX001 (ip), vehicle: saline); 95 % of control (dose: 200.0 mg/kg/injection, schedule: Q01DX001 (ip), vehicle: saline); 96 % of control (dose: 400.0 mg/kg/injection, schedule: Q01DX001 (ip), vehicle: saline).
For the compound `COc1cc(C(=O)O/N=C(\N)CCl)cc(OC)c1OC`, the T/C is 92 % of control (dose: 6.25 mg/kg/injection, schedule: Q04DX002 (ip), vehicle: Klucel (hydroxypropylcellulose) (HPC)); 88 % of control (dose: 12.5 mg/kg/injection, schedule: Q04DX002 (ip), vehicle: Klucel (hydroxypropylcellulose) (HPC)); 88 % of control (dose: 25.0 mg/kg/injection, schedule: Q04DX002 (ip), vehicle: Klucel (hydroxypropylcellulose) (HPC)).
For the compound `NC(=O)c1[nH]cnc1N1CC[N+](Cc2ccccc2)=N1`, the T/C under setting [5] was 102 % of control and the T/C under setting [6] was 96 % of control.

The values are drawn from PubChem BioAssay AID248 (DTP/NCI, 2004).
